Patent US12433952B2, “Antibody-drug conjugates targeting folate receptor alpha and methods of use” (ZYMEWORKS BC INC., priority 2022, dated 2025)
Where two headings read alike, the source gives them in different places.

Tests used:
Assay in all cases: In vitro cytotoxicity of camptothecin analogues (CellTiter-Glo)
Assay type in all cases: cell-based
[1] = test system: MDA-MB-468 (breast cancer); conditions: Homo sapiens, MDA-MB-468, 96 h, read-out: pIC50 MDA-MB-468 (converted)
Procedure: (§1) Cytotoxicity of the camptothecin analogues was assessed in vitro as follows.
(§2) In vitro potency was assessed on multiple cancer cell lines: SK-BR-3 (breast cancer), SKOV-3 (ovarian cancer), Calu-3 (lung cancer), ZR-75-1 (breast cancer) and MDA-MB-468 (breast cancer). Serial dilutions of camptothecin analogues were prepared in RPMI 1640+10% FBS, and 20 μL of each dilution was added to 384-well plates. Cells cultured in log-phase growth were detached by brief incubation in 0.05% Trypsin and resuspended in respective culturing media at 20,000 cells/mL (with the exception of ZR-75 cells, which were resuspended at 10,000 cells/mL). 50 μL of cell suspension was then added to the plates containing test articles. Cells were incubated with test articles for 4 d at 37° C. (with the exception of ZR-75 cells, which were incubated for 5 d). Growth inhibition was assessed by CellTiter-Glo® (Promega Corporation, Madison, WI) and luminescence was measured on a plate reader. IC50 values were determined by GraphPad Prism (GraphPad Software, San Diego CA).

SK-BR-3 (breast cancer) = conditions: Homo sapiens, SK-BR-3, 96 h, read-out: pIC50 SKBR-3 (converted)
Procedure: as §1, §2

SKOV-3 (ovarian cancer) = conditions: Homo sapiens, SK-OV-3, 96 h, read-out: pIC50 SKOV-3 (converted)
Procedure: as §1, §2

ZR-75-1 (breast cancer) = conditions: Homo sapiens, ZR-75-1, 120 h, read-out: pIC50 ZR-75 (converted)
Procedure: as §1, §2

Calu-3 (lung cancer) = conditions: Homo sapiens, Calu-3, 96 h, read-out: pIC50 Calu-3 (converted)
Procedure: as §1, §2

| SMILES | IC50 ([1]; 4 d incubation) [nM] | IC50 (SK-BR-3 (breast cancer); 4 d incubation) [nM] | IC50 (SKOV-3 (ovarian cancer); 4 d incubation) [nM] | IC50 (ZR-75-1 (breast cancer); 5 d incubation) [nM] | IC50 (Calu-3 (lung cancer); 4 d incubation) [nM] | IC50 [1] [nM] | IC50 (SK-BR-3 (breast cancer)) [nM] | IC50 (SKOV-3 (ovarian cancer)) [nM] | IC50 (ZR-75-1 (breast cancer)) [nM] | IC50 (Calu-3 (lung cancer)) [nM] |
| --- | --- | --- | --- | --- | --- | --- | --- | --- | --- | --- |
| CC[C@@]1(O)C(=O)OCc2c1cc1n(c2=O)Cc2c-1nc1cc(F)c(C)cc1c2CN1CCOCC1 [Compound 100, (S)-4-ethyl-8-fluoro-4-hydroxy-9-methyl-11-(morpholinomethyl)-1,12-dihydro-14H-pyrano[3′,4′:6,7]indolizino[1,2-b]quinoline-3,14(4H)-dione] | 2.51 | 1.1 | 2.29 | 1.23 | 1.12 | – | – | – | – | – |
| CC[C@@]1(O)C(=O)OCc2c1cc1n(c2=O)Cc2c-1nc1cc(F)c(OC)cc1c2CN1CCOCC1 [Compound 101, (S)-4-ethyl-8-fluoro-4-hydroxy-9-methoxy-11-(morpholinomethyl)-1,12-dihydro-14H-pyrano[3′,4′:6,7]indolizino[1,2-b]quinoline-3,14(4H)-dione] | 2.57 | 1.07 | 1.58 | 1.07 | – | – | – | – | – | – |
| CC[C@@]1(O)C(=O)OCc2c1cc1n(c2=O)Cc2c-1nc1cc(F)c(C)cc1c2CN1CCN(S(=O)(=O)c2ccccc2)CC1 [Compound 102, (S)-4-ethyl-8-fluoro-4-hydroxy-9-methyl-11-((4-(phenylsulfonyl)piperazin-1-yl)methyl)-1,12-dihydro-14H-pyrano[3′,4′:6,7]indolizino[1,2-b]quinoline-3,14(4H)-dione] | 2.34 | 0.933 | 2.14 | 0.794 | – | – | – | – | – | – |
| CC[C@@]1(O)C(=O)OCc2c1cc1n(c2=O)Cc2c-1nc1cc(F)c(OC)cc1c2CN1CCN(S(=O)(=O)c2ccccc2)CC1 [Compound 103, (S)-4-ethyl-8-fluoro-4-hydroxy-9-methoxy-11-((4-(phenylsulfonyl)piperazin-1-yl)methyl)-1,12-dihydro-14H-pyrano[3′,4′:6,7]indolizino[1,2-b]quinoline-3,14(4H)-dione] | 4.68 | 1.7 | 4.37 | 2.4 | 2.34 | – | – | – | – | – |
| CC[C@@]1(O)C(=O)OCc2c1cc1n(c2=O)Cc2c-1nc1cc(F)c(C)cc1c2CN1CCN(S(=O)(=O)c2ccc(N)cc2)CC1 [Compound 104, (S)-11-((4-((4-aminophenyl)sulfonyl)piperazin-1-yl)methyl)-4-ethyl-8-fluoro-4-hydroxy-9-methyl-1,12-dihydro-14H-pyrano[3′,4′:6,7]indolizino[1,2-b]quinoline-3,14(4H)-dione] | 2.63 | 2.69 | 7.76 | 2.57 | 5.25 | – | – | – | – | – |
| CC[C@@]1(O)C(=O)OCc2c1cc1n(c2=O)Cc2c-1nc1cc(F)c(OC)cc1c2CN1CCN(S(=O)(=O)c2ccc(N)cc2)CC1 [Compound 105, (S)-11-((4-((4-aminophenyl)sulfonyl)piperazin-1-yl)methyl)-4-ethyl-8-fluoro-4-hydroxy-9-methoxy-1,12-dihydro-14H-pyrano[3′,4′:6,7]indolizino[1,2-b]quinoline-3,14(4H)-dione] | 2.75 | 3.63 | 10.7 | 3.09 | 4.47 | – | – | – | – | – |
| CC[C@@]1(O)C(=O)OCc2c1cc1n(c2=O)Cc2c-1nc1cc(F)c(C)cc1c2CN1CCN(C)CC1 [Compound 106, (S)-4-ethyl-8-fluoro-4-hydroxy-9-methyl-11-((4-methylpiperazin-1-yl)methyl)-1,12-dihydro-14H-pyrano[3′,4′:6,7]indolizino[1,2-b]quinoline-3,14(4H)-dione] | 9.33 | 3.39 | 7.41 | 3.8 | 4.57 | – | – | – | – | – |
| CC[C@@]1(O)C(=O)OCc2c1cc1n(c2=O)Cc2c-1nc1cc(F)c(C)cc1c2CN1CCN(c2ccc(N)cc2)CC1 [Compound 108, (S)-11-((4-(4-aminophenyl)piperazin-1-yl)methyl)-4-ethyl-8-fluoro-4-hydroxy-9-methyl-1,12-dihydro-14H-pyrano[3′,4′:6,7]indolizino[1,2-b]quinoline-3,14(4H)-dione] | – | – | – | – | – | 47.9 | 29.5 | 55 | 18.6 | 40.7 |
| CC[C@@]1(O)C(=O)OCc2c1cc1n(c2=O)Cc2c-1nc1cc(F)c(OC)cc1c2CN1CCN(c2ccc(N)cc2)CC1 [Compound 109, (S)-11-((4-(4-aminophenyl)piperazin-1-yl)methyl)-4-ethyl-8-fluoro-4-hydroxy-9-methoxy-1,12-dihydro-14H-pyrano[3′,4′:6,7]indolizino[1,2-b]quinoline-3,14(4H)-dione] | 8.13 | 5.75 | 7.08 | 5.01 | – | – | – | – | – | – |
| CC[C@@]1(O)C(=O)OCc2c1cc1n(c2=O)Cc2c-1nc1cc(F)c(C)cc1c2CN1CCCCC1 [Compound 110, (S)-4-ethyl-8-fluoro-4-hydroxy-9-methyl-11-(piperidin-1-ylmethyl)-1,12-dihydro-14H-pyrano[3′,4′:6,7]indolizino[1,2-b]quinoline-3,14(4H)-dione] | 1.55 | 1.32 | 0.933 | 0.851 | 0.813 | – | – | – | – | – |
| CC[C@@]1(O)C(=O)OCc2c1cc1n(c2=O)Cc2c-1nc1cc(F)c(C)cc1c2CN1CCN(C(=O)OC(C)(C)C)CC1 [Compound 111, tert-butyl (S)-4-((4-ethyl-8-fluoro-4-hydroxy-9-methyl-3,14-dioxo-3,4,12,14-tetrahydro-1H-pyrano[3′,4′:6,7]indolizino[1,2-b]quinolin-11-yl)methyl)piperazine-1-carboxylate] | 28.8 | 8.51 | 16.6 | 9.12 | 19.5 | – | – | – | – | – |
| CC[C@@]1(O)C(=O)OCc2c1cc1n(c2=O)Cc2c-1nc1cc(F)c(C)cc1c2CN1CCNCC1 [Compound 112, (S)-4-ethyl-8-fluoro-4-hydroxy-9-methyl-11-(piperazin-1-ylmethyl)-1,12-dihydro-14H-pyrano[3′,4′:6,7]indolizino[1,2-b]quinoline-3,14(4H)-dione] | 13.5 | 6.61 | 20 | 12 | 17.4 | – | – | – | – | – |
| CC[C@@]1(O)C(=O)OCc2c1cc1n(c2=O)Cc2c-1nc1cc(F)c(C)cc1c2CN1CCO[C@@H](CO)C1 [Compound 113, (S)-4-ethyl-8-fluoro-4-hydroxy-11-(((R)-2-(hydroxymethyl)morpholino)methyl)-9-methyl-1,12-dihydro-14H-pyrano[3′,4′:6,7]indolizino[1,2-b]quinoline-3,14(4H)-dione] | – | – | – | – | – | 3.39 | 1.95 | 4.27 | 2.19 | 3.02 |
| CC[C@@]1(O)C(=O)OCc2c1cc1n(c2=O)Cc2c-1nc1cc(F)c(OC)cc1c2CNS(=O)(=O)c1ccc(N)cc1 [Compound 128, (S)-4-amino-N-((4-ethyl-8-fluoro-4-hydroxy-9-methoxy-3,14-dioxo-3,4,12,14-tetrahydro-1H-pyrano[3′,4′:6,7]indolizino[1,2-b]quinolin-11-yl)methyl)benzenesulfonamide] | – | – | – | – | – | 8.32 | 5.25 | 18.2 | 4.27 | – |
| CC[C@@]1(O)C(=O)OCc2c1cc1n(c2=O)Cc2c-1nc1cc(F)c(N)cc1c2CNS(=O)(=O)CCO [Compound 150, (S)—N-((9-amino-4-ethyl-8-fluoro-4-hydroxy-3,14-dioxo-3,4,12,14-tetrahydro-1H-pyrano[3′,4′:6,7]indolizino[1,2-b]quinolin-11-yl)methyl)-2-hydroxyethane-1-sulfonamide] | – | 7.94 | 63.1 | 6.46 | – | – | – | – | – | – |
